# Test results published in publication PMC3684770 (Free Radical Biology & Medicine, 2013).
# Values joined by “and” are separate entries in the source; they are usually repeats but may differ in a detail not shown here. Equal entries are not always repeated. Structures can show the parent of a compound that is named as a salt.
# Experiments:
# [1] = test system: Nrf2-ARE pathway; assay: ARE reporter assay in C6 astrocyte cell line (C6-ARE); assay type: cell-based, rat; details: C6-ARE, highest dose
# Source text: Chinese hamster ovary (CHO), NSC34 mouse motor neuronal cells […] The ARE-TK-GFP and TK-GFP reporter constructs were a kind gift from William E. Fahl McArdle Laboratory for Cancer Research, University of Wisconsin. […] The NSC34 cell lines stably expressing G93A mutant hSOD1 have been described previously. […] Mouse embryonic fibroblasts were generated and maintained as described previously.
# [2] = test system: Nrf2-ARE pathway; assay: ARE reporter assay in CHO 4xARE-TK-GFP cells (Spectrum library hits); details: for Toxic dose: lowest dose at which a reduction in GFP fluorescence was observed
# [3] = test system: 1321N1 astrocyte cell line; assay: 1321N1 oxidative stress assay (serum withdrawal, DCF); details: for Emax / IC50: Homo sapiens; for Emax: 1321-N1, 24 h, read-out: 1321N1 oxidative stress assay Max reduction; for IC50: 1321-N1, read-out: 1321N1 oxidative stress assay IC50; for 1321N1 oxidative stress assay Toxic dose: minimum dose at which toxicity was observed
# Method: (§2) Media were then replaced with serum-free, phenol-free media for 5 h.
# [4] = test system: C6 astrocyte cell line; assay: C6 oxidative stress assay (serum withdrawal, DCF); details: for Emax / IC50: Rattus norvegicus, Astrocyte; for Emax: 24 h, read-out: C6 oxidative stress assay Max reduction; for IC50: read-out: C6 oxidative stress assay IC50; for C6 oxidative stress assay Toxic dose: minimum dose at which toxicity was observed
# Method: as §2
# [5] = test system: NSC34 cells; assay: NSC34 oxidative stress assay (serum withdrawal, DCF); details: for Emax: NSC-34, 24 h, read-out: NSC34 oxidative stress assay Max reduction; for NSC34 oxidative stress assay Toxic dose: minimum dose at which toxicity was observed
# Method: as §2
# [6] = molecular target: D4 receptors; details: read-out: Ki D4 receptors; cited from earlier work
# [7] = molecular target: D1 receptors; details: read-out: Ki D1 receptors; cited from earlier work
# [8] = test system: HO-1 and NQO1 gene expression; assay: Q-RTPCR of Nrf2-regulated genes in primary mouse astrocytes; assay type: cell-based; details: 24-h treatment at EC50 and EC90
# Method: (§1) Nrf2 Target gene expression was determined using Q-RTPCR as described previously using the following primers: Ho-1 forward primer, cac ttc gtc aga ggc ctg cta; Ho-1 reverse primer, gcg gtg tct ggg atg agc ta; Nqo1 forward primer, cgc ctg agc cca gat att gt; Nqo1 reverse primer, act gca atg gga act gaa ata tca; GAPDH forward, gaa acc tgc caa gta tga tga cat; GAPDH reverse, ggt cct cag tgt agc cca aga t.
# [9] = test system: P-glycoprotein; parameters: method as in PMID 19093450; details: cited from earlier work
# [10] = test system: HO-1 and NQO1 gene expression; assay: Q-RTPCR of Nrf2-regulated genes in C6 cells; assay type: cell-based, rat; details: C6, 24-h treatment at EC50 and EC90
# Method: as §1
# [11] = test system: primary mouse motor neurons; assay: Primary motor neuron/astrocyte coculture, menadione stress; assay type: cell-based; details: 24-h pretreatment, 6 h 10 µM menadione
# Method: Mouse glial cultures were established based on published methods [[68,69]]. Primary spinal cord motor neurons (MNs) were cultured from E13.5 C57Bl/6 mouse embryos as described previously. Cocultures were allowed to establish for 2 weeks and neuroprotection assays performed. Cocultures were exposed to drug or vehicle for 24 h followed by a 6-h treatment with menadione (10 μM) to induce oxidative stress or with no stress to determine the effect of drug alone. Following stress treatment, coverslips were washed 3 times, fixed, and permeabilised, and MNs immunostained with SMI32 (Covance, UK). Total MNs were counted by fluorescence microscopy in a 1.5 cm^2 area per coverslip. A minimum of three repeats in triplicate were performed per condition. Both vehicle and drug treatments were counted with and without stress treatment, and results were analysed by two-way ANOVA using Bonferroni post tests.
# [12] = test system: heme oxygenase 1 (HO-1); assay: HO-1 immunofluorescence staining in primary mouse astrocytes; assay type: cell-based; details: EC90 concentration, 24 h
# [13] = test system: NQO1 protein expression; assay: Western blot NQO1 in wild-type MEFs; assay type: cell-based, mouse; details: EC90 concentration, 24 h
# Method: Cells were isolated and lysed in a RIPA buffer containing protease inhibitor cocktail (Roche), quantified for protein content by Bradford assay, and loaded 30 μg per sample. Samples were run on a 12.5% acrylamide gel under reducing conditions with a prestained marker and transferred to polyvinylidene fluoride membrane and blocked in 5% milk. Mouse anti-alpha-tubulin, clone DM1A (Sigma), and rabbit anti-NQO1 (kind gift from Prof. John Hayes, University of Dundee) were used at 1 in 1000 dilution in Tris-buffered saline containing Tween. Polyclonal goat anti-mouse (Abcam-Ab97040) and polyclonal goat anti-rabbit (Dako Cat. No. P0448), horseradish peroxidase-conjugated secondary antibodies were used for detection of relevant primary antibodies. Bands were visualised by enhanced chemiluminescence reagents (Geneflow EZ-ECL kit). Relative band intensities were captured, using subsaturation, and quantified using a Gbox iChem XT digital imaging system (Syngene).
# [14] = test system: primary mouse astrocytes; assay: Total glutathione assay in primary mouse astrocytes and conditioned media; assay type: cell-based; details: 24-h pretreatment
# Method: Primary astrocytes were grown to confluency in 24-well plates and then treated with drug (or 0.05% DMSO vehicle) in phenol red-free DMEM containing 10% FBS and penicillin/streptomycin for 24 h. Conditioned medium was collected and astrocytes were then washed in ice-cold PBS before addition of 250 μl/well of sulphosalicylic acid (SSA, 5% (w/v)). Plates were frozen at −80 °C and thawed at 37 °C, twice, and then incubated at 4 °C for 15 min. The supernatant was removed and centrifuged at 13,000 g for 5 min. Conditioned medium samples were incubated at 80 °C for 15 min and then centrifuged at 13,000 g for 5 min. Samples were either used immediately or stored at −80 °C. Reaction mixture (150 μl/well; 100 mM potassium phosphate buffer, pH 7.0, 1 mM EDTA, 6 Units/ml glutathione reductase, 1.5 mg/ml 5,5′-dithiobis(2-nitrobenzoic acid)) was added to 10 μl of each sample or glutathione standard (0–50 μM reduced glutathione) in a 96-well plate and incubated at room temperature for 5 min before addition of 50 μl/well of NADPH solution (0.16 mg/ml). A412nm was measured every minute for 15 min and the total glutathione concentration (GSH + GSSG) was calculated from initial rates. Samples were tested in triplicate.
# [15] = test system: NQO1 and HO-1 gene expression; assay: Q-RTPCR in astrocytes from SOD1G93A transgenic mice; assay type: cell-based, mouse; details: G93A SOD1 astrocytes, 24-h pretreatment at EC90 (andrographolide also EC50)
# Method: as §1
# [16] = test system: primary fibroblasts from ALS patients; assay: Oxidative stress assay in ALS patient and control fibroblasts; assay type: cell-based, human; details: 3.7 or 0.41 µM, 24 h
# Method: Fibroblasts were obtained from human controls (n=3) and ALS patients with I113T SOD1 mutations (n=3) and sporadic ALS patients (n=2). […] The cells were incubated at 37 °C/5% CO2 overnight. The following day the media were removed and the cells were washed with 200 µl 1XP BS. Phenol red-free DMEM/F12 media (Sigma D6434) was added in the presence of 10% serum/2 mM Gln (++), 10% serum/0 mM Gln (+−), or 0% serum/0 mM Gln (−−). Cells were incubated at 37 °C/5% CO2 for 5 h.
# Carboxy-H2DCFDA fluorescence was normalised to live cell number (total EthD1 signal after freeze/thaw – EthD1 signal after assay) to compare between the different cell lines. Data were analysed by one-way ANOVA with Bonferroni post tests using GraphPad Prism
# DMEM/F12 (50 µl) media were added in the presence of 10% serum/0 mM Gln (+−) and the cells were incubated at 37 °C and 5% CO2 for 5 h.
# The data were tested for normality and analysed by one-way ANOVA using GraphPad Prism.
# [17] = Pharmacokinetic analysis in C57Bl/6 mice; assay type: in vivo, mouse; details: 1 mg/kg
# Method: Pharmacokinetic studies were performed by Pharmidex (London, UK). […] All concentrations were calculated with reference to the relevant standard curve. An extraction buffer (EB) solution of acetonitrile with 0.1% formic acid (Fisher Scientific, HPLC grade) and 500 ng/ml of propranolol as the internal standard (IS) was used for in all extraction protocols.
# [18] = mouse ref 73; cited from earlier work
# [19] = cited from earlier work
SMILES,EC50 ([2]; Cricetulus griseus),Toxic dose [2],Emax [3],IC50 [3],1321N1 oxidative stress assay Toxic dose [3],Emax [4],IC50 [4],C6 oxidative stress assay Toxic dose [4],Emax ([5]; Mus musculus),NSC34 oxidative stress assay Toxic dose [5],other results
"CN1CCc2cccc3c2[C@H]1Cc1ccc(O)c(O)c1-3 [Apomorphine hydrochloride, reference compound]",25900 nM,100 µM,79%,1700 nM,None,62%,1690 nM,None,25%,10 µM,"dose showing toxicity [1]: 30 µM; IC50 ([5]; Mus musculus, NSC-34, read-out: NSC34 oxidative stress assay IC50): 174 nM; Ki [6]: 4.4 nM; Ki [7]: 370 nM"
C=C1CC[C@@H]2[C@](C)(CO)[C@H](O)CC[C@@]2(C)[C@@H]1C/C=C1/C(=O)OC[C@H]1O [Andrographolide],740 nM,100 µM,35%,501 nM,10 µM,69%,192 nM,10 µM,0%,10 µM,"HO-1 and NQO1 gene expression [8]: statistically significant changes in gene expression; maximal fold induction ([2]; Cricetulus griseus, CHO, 24 h, read-out: Fold GFP induction): 3.61; P-glycoprotein substrate [9]: substrate; HO-1 and NQO1 gene expression [10]: statistically significant changes in gene expression; motor neuron numbers after menadione [11]: significant neuroprotective effects; HO-1 staining index [12]: significant increase in HO-1 staining; NQO1 protein expression, fold over vehicle [13]: 3.6 fold and > 3 fold; total glutathione levels [14]: enhance glutathione production; transcripts for NQO1 and HO1 [15]: significant increase in transcripts"
CN1CCc2cccc3c2[C@H]1Cc1ccc(O)c(O)c1-3 [apomorphine],,,,,,,,,,,"cell number compared to DMSO control [16]: no effect on cell number; Kp ([17]; C57Bl/6, mouse, brain / plasma, intravenous, read-out: brain:plasma (Kp)): 2.1; clearance ([17]; C57Bl/6, plasma, mouse, iv): 109 mL/min/kg; plasma protein binding fraction (unbound) [18]: 0.222; fraction absorbed following subcutaneous dosing ([19]; humans ref 75): 1; Tmax following subcutaneous dosing ([19]; humans ref 76): 8 to 16 min"
